Assay results reported in the supplement of paper PMC6045584.
± gives the standard deviation of the averaged measurements.

Assays:
NUTLIN3 = compound: COc1ccc(C2=N[C@@H](c3ccc(Cl)cc3)[C@@H](c3ccc(Cl)cc3)N2C(=O)N2CCNC(=O)C2)c(OC(C)C)c1 [NUTLIN3]; assay: surviving fraction relative to DMSO-only wells; higher = less growth inhibition; conditions: exposure time: 5 days
Summary of the method: (§1)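 Continuous five-day exposure to inhibitors at 0.5, 1, 5, 10, 50, 100, 500 and 1000 nM started 24 hours after log-phase tumour cell lines were seeded at 250–500 cells per well in 384-well plates. Luminescence was read after 10 minutes at room temperature. Viability is given as surviving fraction, meaning CellTiter-Glo luminescence normalised to the median of DMSO-only wells.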

FLAVOPIRIDOL = compound: CN1CC[C@H](c2c(O)cc(O)c3c(=O)cc(-c4ccccc4Cl)oc23)[C@H](O)C1 [FLAVOPIRIDOL]; assay: as above; conditions: exposure time: 5 days
Summary of the method: as §1

Test System	surviving fraction (NUTLIN3; 0.5 nM)	surviving fraction (NUTLIN3; 1 nM)	surviving fraction (NUTLIN3; 5 nM)	surviving fraction (NUTLIN3; 10 nM)	surviving fraction (NUTLIN3; 50 nM)	surviving fraction (NUTLIN3; 100 nM)	surviving fraction (NUTLIN3; 500 nM)	surviving fraction (NUTLIN3; 1000 nM)	surviving fraction (FLAVOPIRIDOL; 0.5 nM)	surviving fraction (FLAVOPIRIDOL; 1 nM)	surviving fraction (FLAVOPIRIDOL; 5 nM)	surviving fraction (FLAVOPIRIDOL; 10 nM)	surviving fraction (FLAVOPIRIDOL; 50 nM)	surviving fraction (FLAVOPIRIDOL; 100 nM)	surviving fraction (FLAVOPIRIDOL; 500 nM)	surviving fraction (FLAVOPIRIDOL; 1000 nM)
MDAMB134 BREAST	1.03 ± 0.011	0.923 ± 0.0071	1.013 ± 0.0085	0.84 ± 0.11	1.125 ± 0.0021	1.07 ± 0.032	1.021 ± 0.0042	0.896 ± 0.028	1 ± 0.019	0.991 ± 0.041	1.09 ± 0.037	1.13 ± 0.088	1.52 ± 0.23	0.977 ± 0.15	0.303 ± 0.016	0.2765 ± 0.0021
MDAMB157 BREAST	0.957 ± 0.071	0.961 ± 0.093	0.97 ± 0.11	0.913 ± 0.12	1.02 ± 0.075	1 ± 0.039	0.999 ± 0.051	1.04 ± 0.074	0.999 ± 0.025	0.921 ± 0.096	0.986 ± 0.073	0.927 ± 0.018	0.769 ± 0.022	0.3 ± 0.027	0.0433 ± 0.016	0.0383 ± 0.0076
MDAMB231 BREAST	0.97 ± 0.013	0.976 ± 0.028	1.01 ± 0.017	0.977 ± 0.019	1.06 ± 0.017	1.06 ± 0.02	1 ± 0.026	0.995 ± 0.022	0.99 ± 0.022	0.9902 ± 0.0098	1.02 ± 0.042	0.995 ± 0.039	0.833 ± 0.018	0.372 ± 0.028	0.0403 ± 0.0017	0.0366 ± 0.0017
MDAMB361 BREAST	0.854 ± 0.032	0.793 ± 0.036	0.809 ± 0.075	0.844 ± 0.097	0.887 ± 0.12	0.923 ± 0.063	0.907 ± 0.067	0.825 ± 0.025	0.919 ± 0.18	0.814 ± 0.066	0.841 ± 0.05	0.861 ± 0.13	0.937 ± 0.13	0.719 ± 0.039	0.223 ± 0.021	0.229 ± 0.022
MDAMB436 BREAST	0.91 ± 0.076	0.835 ± 0.092	0.923 ± 0.033	0.928 ± 0.063	0.924 ± 0.074	0.895 ± 0.12	0.881 ± 0.041	0.941 ± 0.074	0.998 ± 0.042	0.991 ± 0.071	1.06 ± 0.14	0.941 ± 0.036	0.556 ± 0.026	0.183 ± 0.024	0.185 ± 0.0025	0.182 ± 0.0028
MDAMB453 BREAST	1.02 ± 0.053	1.05 ± 0.029	1.07 ± 0.053	1.08 ± 0.024	1.13 ± 0.083	1.13 ± 0.13	1.04 ± 0.066	1.05 ± 0.035	1.039 ± 0.0056	1.03 ± 0.071	1.1 ± 0.083	1.01 ± 0.02	0.586 ± 0.056	0.134 ± 0.022	0.085 ± 0.017	0.074 ± 0.025
MDAMB468 BREAST	0.994 ± 0.026	0.978 ± 0.019	1.07 ± 0.071	1.02 ± 0.067	1.06 ± 0.07	1.04 ± 0.076	1.04 ± 0.049	0.982 ± 0.041	1.03 ± 0.031	0.967 ± 0.064	1.03 ± 0.045	0.991 ± 0.04	0.734 ± 0.061	0.15 ± 0.016	0.0447 ± 0.005	0.04 ± 0.0061
MFM223 BREAST	1.07 ± 0.079	1.04 ± 0.13	1.08 ± 0.058	1.06 ± 0.027	1.12 ± 0.045	1.12 ± 0.073	1.12 ± 0.063	1.07 ± 0.068	1.45 ± 0.57	1.45 ± 0.64	1.46 ± 0.61	1.25 ± 0.4	0.351 ± 0.032	0.119 ± 0.045	0.0438 ± 0.021	0.0642 ± 0.061
MG63 BONE	1.01 ± 0.039	1 ± 0.014	1.07 ± 0.046	1.05 ± 0.019	1.06 ± 0.029	1.05 ± 0.018	0.989 ± 0.042	1.01 ± 0.043	1.06 ± 0.022	1.06 ± 0.023	1.165 ± 0.0064	1.19 ± 0.033	1.35 ± 0.045	0.782 ± 0.049	0.0347 ± 0.0023	0.0313 ± 0.0015
MHM BONE	0.995 ± 0.017	0.998 ± 0.019	1.03 ± 0.028	1.02 ± 0.024	1.01 ± 0.023	1.02 ± 0.046	0.963 ± 0.018	0.9187 ± 0.0085	1.02 ± 0.036	1.04 ± 0.035	1.06 ± 0.024	1.11 ± 0.025	1.227 ± 0.0078	1.16 ± 0.048	0.0433 ± 0.0021	0.0397 ± 0.0021
NCIH441 LUNG	1.04 ± 0.092	1.04 ± 0.028	1.01 ± 0.058	1.05 ± 0.051	1.07 ± 0.095	1.08 ± 0.1	1.2 ± 0.06	1.14 ± 0.065	1.18 ± 0.06	1.12 ± 0.026	1.09 ± 0.042	1.08 ± 0.11	0.953 ± 0.081	0.698 ± 0.17	0.103 ± 0.024	0.0917 ± 0.024
NOS1 BONE	1.14 ± 0.072	0.978 ± 0.1	1.142 ± 0.0078	1.17 ± 0.16	1.14 ± 0.071	1.15 ± 0.1	1.08 ± 0.042	1.08 ± 0.04	1.25 ± 0.046	1.19 ± 0.054	1.22 ± 0.15	1.26 ± 0.084	0.54 ± 0.061	0.083 ± 0.0027	0.031 ± 0.004	0.0383 ± 0.0084
NY BONE	1 ± 0.019	0.95 ± 0.034	0.997 ± 0.033	1.015 ± 0.0098	1.05 ± 0.048	1.01 ± 0.034	0.925 ± 0.036	0.972 ± 0.012	0.984 ± 0.015	0.977 ± 0.017	1.05 ± 0.027	1.01 ± 0.05	0.813 ± 0.071	0.0513 ± 0.01	0.025 ± 0.001	0.024 ± 0.001
OS25HAL BONE	0.975 ± 0.014	0.998 ± 0.018	0.979 ± 0.013	0.974 ± 0.03	1.06 ± 0.0081	1.064 ± 0.0045	1.052 ± 0.0056	1.06 ± 0.013	1.01 ± 0.035	0.996 ± 0.058	1.12 ± 0.052	1.06 ± 0.021	1.1 ± 0.036	0.101 ± 0.015	0.048 ± 0.013	0.0443 ± 0.012
OSHN BONE	1.06 ± 0.036	1.05 ± 0.057	1.06 ± 0.034	1.05 ± 0.044	1.09 ± 0.058	1.07 ± 0.033	1.08 ± 0.034	1.07 ± 0.029	1.08 ± 0.018	1.08 ± 0.022	1.114 ± 0.0095	1.08 ± 0.018	1.23 ± 0.035	0.382 ± 0.041	0.0357 ± 0.0055	0.0323 ± 0.0075
PCI30 HEADNECK	1.01 ± 0.034	0.93 ± 0.019	1.04 ± 0.026	1.06 ± 0.064	1.14 ± 0.062	1.09 ± 0.05	1.02 ± 0.041	1.04 ± 0.092	1.02 ± 0.019	1.02 ± 0.038	1.15 ± 0.031	1.13 ± 0.029	0.701 ± 0.028	0.085 ± 0.0053	0.032 ± 0.0017	0.0303 ± 0.00058
RDES SOFT TISSUE	1.25 ± 0.074	1.32 ± 0.076	1.07 ± 0.044	1.18 ± 0.14	1.17 ± 0.13	1 ± 0.17	1.4 ± 0.22	1.25 ± 0.17	1.36 ± 0.11	1.3 ± 0.12	1.39 ± 0.07	1.44 ± 0.059	1.66 ± 0.12	0.945 ± 0.2	0.0467 ± 0.0025	0.0383 ± 0.0025
S68 BREAST	0.854 ± 0.16	0.785 ± 0.32	0.92 ± 0.03	0.976 ± 0.16	1.28 ± 0.18	0.99 ± 0.07	0.936 ± 0.25	1.01 ± 0.22	1.18 ± 0.31	0.847 ± 0.12	0.765 ± 0.091	1.2 ± 0.31	0.888 ± 0.29	0.483 ± 0.068	0.0377 ± 0.0021	0.0367 ± 0.0055
SAOS2 BONE	1.16 ± 0.028	0.981 ± 0.037	1.13 ± 0.043	1.09 ± 0.048	1.15 ± 0.017	1.2 ± 0.029	1.12 ± 0.033	1.043 ± 0.0023	1.23 ± 0.13	1.18 ± 0.06	1.26 ± 0.039	1.14 ± 0.04	0.889 ± 0.048	0.159 ± 0.022	0.0307 ± 0.0015	0.0247 ± 0.0025
SCC003 HEADNECK	1.05 ± 0.12	1.01 ± 0.081	1.03 ± 0.12	1 ± 0.088	1.06 ± 0.062	1.12 ± 0.07	1.09 ± 0.089	1.07 ± 0.13	1.06 ± 0.061	1.1 ± 0.083	1.12 ± 0.055	0.987 ± 0.084	0.667 ± 0.032	0.392 ± 0.14	0.0627 ± 0.0064	0.0573 ± 0.0032
SCC36 HEADNECK	1.07 ± 0.15	1.04 ± 0.087	1.16 ± 0.014	1.04 ± 0.03	1.19 ± 0.069	1.17 ± 0.044	1.04 ± 0.1	1.1 ± 0.051	0.982 ± 0.1	0.974 ± 0.062	1.14 ± 0.16	1.24 ± 0.15	0.962 ± 0.086	0.405 ± 0.0093	0.036 ± 0.0035	0.032 ± 0.001
